In patent US20080207710A1, “Insulin Secretagogue Drugs” (TOUDAI TLO, LTD., priority 2004, published 2008):

Key:
[1] = tested on: pancreatic β cells (islets of Langerhans); experiment: Glucose-stimulated insulin secretion from isolated islets of Langerhans; type: cell-based, mouse; conditions: for insulin secretion on stimulation with glucose: 24 hr with 10 or 100 nM GW501516, 16.7 mM glucose, 1 hr
Experimental: Animals, 6-week-old male C57BL/6J and Lepr^db/Lepr^db mice, were purchased from Clea Japan, Inc., and kept under the following conditions: room temperature, 25° C.; humidity, 60±10%; and 12 hr light/dark cycles (light period, 08:00 to 20:00). All animals were tamed for one week and then subjected to tests. The animals were given free access to food (commercial lab chow, pellet form CE-2, Clea Japan, Inc.) and water. Male C57BL/6J and Lepr^db/Lepr^db mice were used. After clamping the common bile duct at a point close to the duodenum outlet under Nembutal anesthetization, 1 mg/mL collagenase (Wako Pure Chemical Industries, Ltd., Japan) was injected into the common bile duct at a liver side. The pancreas was taken out and incubated at 37° C. for 13 min. Thereafter, Hank's balanced salt solution was added, the pancreas tissue suspension was shaken and then centrifuged to remove supernatants. The pancreas tissue was resuspended in Hank's balanced salt solution, and then subjected to filtration followed by addition of Hank's balanced salt solution to make the tissue suspension volume 35 mL. The resultant tissue suspension was mixed and then allowed to stand for 5 min. Supernatants were removed with an aspirator except that 5 mL of the solution was retained, and the remaining solution was remixed with Hank's balanced salt solution to make the tissue suspension volume 35 mL. […] After incubation in a Krebs-Ringer bicarbonate buffer (KRBB, 119 mM NaCl, 4.74 mM KCl, 2.54 mM CaCl2, 1.19 mM MgCl2, 1.19 mM KH2PO4, 25 mM NaHCO3, and 10 mM HEPES, pH 7.4) containing 2.8 mM glucose at 37° C. for 1 hr, the islets of Langerhans were dispensed in a 24-well plate at 10 islets per well, and incubated in KRBB containing 2.8, 5.6 or 16.7 mM glucose, respectively, at 37° C. for 1 hr. Each supernatant sample collected was assayed for insulin with rat insulin [^125I] Biotrak Assay System (Amersham).

[2] = tested on: obese animals; conditions: cited from earlier work

Structure (SMILES): Cc1cc(SCc2sc(-c3ccc(C(F)(F)F)cc3)nc2C)ccc1OCC(=O)O [GW501516, 2-{2-methyl-4-[({4-methyl-2-[4-(trifluoromethyl)phenyl]-1,3-thiazol-5-yl}methyl)thio]phenoxy}acetic acid]
- dose dependence of insulin secretion when stimulated with elevated glucose levels ([1]; 10 or 100 nM GW501516, elevated glucose levels): increased dose-dependently insulin secretion
- insulin secretion on stimulation with glucose ([1]; islets from C57BL/6J mice): significant insulin secretion
- insulin secretion on stimulation with glucose ([1]; islets from Lepr^db/Lepr^db mice): significant insulin secretion
- effect on diabetes (plasma glucose and blood insulin levels) ([2]; genetically obese animals): improve diabetes as revealed by the decrease in plasma glucose and blood insulin levels
- effect on obesity and insulin resistance ([2]; obese animals induced by high-fat dieting): ameliorate obesity and insulin resistance
